Patent publication US6060458A (The United States of America as represented by the …, priority 1998, dated 2000)
Residue numbers refer to the chain shown, from its start.

How the values were obtained:
[1] = test system: wild-type human alkyltransferase (AGT); test: Inactivation of purified wild-type human AGT, residual activity on [3H]-methylated DNA substrate; type: biochemical; settings: 30 min at 37° C. incubation with inactivator
Method: (§1) Whether or not a given single-stranded oligodeoxyribonucleotide inactivates a wild-type or mutant human alkyltransferase can be determined by measuring alkyltransferase depletion. For example, a stock solution (100 mM) of a given single-stranded oligodeoxyribonucleotide in an aqueous or mixed aqueous/organic solvent can be prepared. Solutions of the human wild-type AGT, mutant human AGT, or the AGT from HT29 cells and cell extracts (Domoradzki et al., Carcinogenesis 5: 1641-1647 (1984)) can be incubated with varying concentrations (between 0 and 400 μM, for example) of the oligodeoxyribonucleotide for 30 min in a buffer containing 50 mM Tris-HCl, pH 7.5, 0.1 mM EDTA, and 5 mM dithiothreitol, and alkyltransferase depletion can be measured. Alternatively, cells can be plated at a density of 5×10^6 cells/T75 flask and allowed to grow for three days, at which time the medium can be replaced with medium containing a given concentration of an oligodeoxyribonucleotide. After four hours, cells can be harvested and frozen at -80° C. for analysis of alkyltransferase depletion later. Alkyltransferase depletion is determined by measuring loss of O^6 -[^3 H]methylguanine, for example, from a [^3 H]methylated DNA substrate, for example, which can be prepared by reacting [^3 H]methylnitrosourea (21.5 Ci/mmol) with calf thymus DNA as described previously (Domoradzki et al. (1984), supra; and Dolan et al. (1990), supra).
(§2) Wild-type human AGT and mutants thereof, namely P140A and G156A, were prepared using the pIN vector expression system. pIN-AGT, pIN-P140A (Pro-140 to Ala) and pIN-G156A (Gly-156 to Ala) (Crone et al. (1993), supra; Crone et al. (1994), supra; and Pegg et al. (1993), supra).
(§3) The wild-type and mutant AGT proteins expressed from the pIN vectors were purified to homogeneity by ammonium sulfate precipitation, Mono-S chromatography and gel filtration as previously described (Pegg et al. (1993), supra; and Kanugula et al. (1995), supra). […] Afterwards, residual AGT activity was determined by a 30 min incubation with a [^3 H]-methylated DNA substrate (1.0 ml volume), which had been methylated by reaction with N-[^3 H]-methyl-N-nitrosourea as previously described (Dolan et al. (1993), supra; and Dolan et al. (1991), supra).

[2] = molecular target: T1, mutant human alkyltransferase P140A (Homo sapiens, UniProt P16455, P140A); test: Inactivation of purified mutant human AGT P140A, residual activity on [3H]-methylated DNA substrate; type: biochemical; settings: 30 min at 37° C. incubation with inactivator
T1 construct: made in house; E. coli by own knowledge of pIN vectors
T1 sequence (P16455 1-207 P140A): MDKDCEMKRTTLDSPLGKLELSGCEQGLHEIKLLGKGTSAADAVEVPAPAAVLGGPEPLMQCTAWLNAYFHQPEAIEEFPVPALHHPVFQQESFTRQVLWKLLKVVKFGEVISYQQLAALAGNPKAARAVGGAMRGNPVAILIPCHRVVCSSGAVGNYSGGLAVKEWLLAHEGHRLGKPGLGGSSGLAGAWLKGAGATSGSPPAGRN
Method: as §1, §2, §3

[3] = molecular target: T2, mutant human alkyltransferase G156A (Homo sapiens, UniProt P16455, G156A); test: Inactivation of purified mutant human AGT G156A, residual activity on [3H]-methylated DNA substrate; type: biochemical; settings: 30 min at 37° C. incubation with inactivator
T2 construct: made in house; E. coli by own knowledge of pIN vectors
T2 sequence (P16455 1-207 G156A): T1 sequence (P16455 1-207 P140A) with A140P, G156A
Method: as §1, §2, §3

[4] = molecular target: T1, mutant human alkyltransferase P140A; settings: P140A mutant AGT; data previously published; read-out: ED50 for inactivation of AGT; cited from earlier work
[5] = molecular target: wild-type human alkyltransferase (AGT); settings: data previously published, read-out: ED50 for inactivation of AGT; cited from earlier work
[6] = molecular target: T2, mutant human alkyltransferase G156A; settings: G156A mutant AGT; data previously published; read-out: ED50 for inactivation of AGT; cited from earlier work
AGT = settings: cell culture; maximal reduction attained (Pegg et al. (1995)); cited from earlier work

## 5'-d(GTGAb^6 GCTGT)-3'
[1]
  ED50 for inactivation of AGT (concentration needed to reduce AGT activity by 50%): 0.008 µM
[2]
  ED50 for inactivation of AGT (concentration needed to reduce AGT activity by 50%): 0.06 µM
[3]
  ED50 for inactivation of AGT (concentration needed to reduce AGT activity by 50%): 0.09 µM

## Nc1nc(OCc2ccccc2)c2ncn([C@H]3C[C@H](O)[C@@H](CO)O3)c2n1 [O^6-benzyl-2'-deoxyguanosine]
[4]
  IC50: > 20 µM
[5]
  IC50: 2 µM
[6]
  IC50: > 100 µM

## Nc1nc(OCc2ccccc2)c2[nH]cnc2n1 [O^6 -benzylguanine]
[5]
  IC50: 0.2 µM

## 5'-d(TGTGAb^6 GCTGTG)-3'
[1]
  ED50 for inactivation of AGT (concentration needed to reduce AGT activity by 50%): 0.013 µM
[2]
  ED50 for inactivation of AGT (concentration needed to reduce AGT activity by 50%): 0.075 µM
[3]
  ED50 for inactivation of AGT (concentration needed to reduce AGT activity by 50%): 0.11 µM

## 5'-d(GAb^6 GCT)-3'
[1]
  ED50 for inactivation of AGT (concentration needed to reduce AGT activity by 50%): 0.013 µM
[2]
  ED50 for inactivation of AGT (concentration needed to reduce AGT activity by 50%): 0.05 µM
[3]
  ED50 for inactivation of AGT (concentration needed to reduce AGT activity by 50%): 0.06 µM

## COc1nc(N)nc2[nH]cnc12 [O^6 -methylguanine]
AGT
  reduction of AGT activity: 85%

## 5'-d(TGAb^6 GCTG)-3'
[1]
  ED50 for inactivation of AGT (concentration needed to reduce AGT activity by 50%): 0.007 µM
[2]
  ED50 for inactivation of AGT (concentration needed to reduce AGT activity by 50%): 0.06 µM
[3]
  ED50 for inactivation of AGT (concentration needed to reduce AGT activity by 50%): 0.05 µM

## 5'-d(Ab^6 GC)-3'
[1]
  ED50 for inactivation of AGT (concentration needed to reduce AGT activity by 50%): 0.09 µM
[2]
  ED50 for inactivation of AGT (concentration needed to reduce AGT activity by 50%): 0.77 µM
[3]
  ED50 for inactivation of AGT (concentration needed to reduce AGT activity by 50%): 4.6 µM
